{"source": "patent US20210038732A1", "about": "“ANTICANCER MICRORNA AND LIPID FORMULATIONS THEREOF” (INTERNA TECHNOLOGIES B.V., priority 2018, published 2021)", "key": {"A549, H460": {"system": "A549, H460", "assay": "Cell cycle arrest profile (nuclei imaging or flow cytometry)", "assay_type": "cell-based, human", "conditions": "10 nM", "procedure": "Depending on cancer cell type 3000-6000 cells were seeded in a 96 well plate. After cells attached, they were transfected with different concentrations of miRNA-193a and cell cycle profile was measured at different time points. At selected time points media was aspirated from wells and DNA staining solution (Hoescht 33342/Saponin/PFA) was added to each well and incubated for 2 hours at 37° C. Then, cell images were taken using Thermo Celllnsite in which nuclei were specified and nuclei intensity were measured. Nuclei intensity was analyzed using program R to determine the different phases of the cell cycle (G0/G1, S, G2/M) based on the DNA content.\nTo specifically detect the cells that are undergoing apoptosis, FITC Annexin V apoptosis detection kit (BD pharmingen) was used. […] After cells attached, they were transfected with different concentrations of miRNA-193a and apoptosis assay was measured at different time points following the manufacturer's protocol. With this assay we have detected the percentage of apoptotic cells indicating the SubG1 phase of the cell cycle.\nDifferent biological effects of miRNA-193a-3p have been tested in various cancer cell lines (see Table 13). […] For all experiments controls (untreated, mock and scrambled) were measured. […] All the results have been quantified and normalized to the mock control. […]"}, "4T1": {"system": "4T1", "assay": "Cell motility, Boyden chamber assay", "assay_type": "cell-based, mouse", "conditions": "10 nM", "procedure": "(§1) To check the migratory ability of cells, a Boyden Chamber assay was performed, which is based on a chamber of two medium-filled compartments separated by a […] pore size membrane (BD falcon). In this assay, depending on cell type 60,000-120,000 cells were seeded in the upper compartment of the membrane in serum free medium and were allowed to migrate through the pores of the membrane into the lower compartment, in which serum is present in the media. The serum acts as a chemoattractant. After an appropriate incubation time, the membrane between two compartments was fixed, stained and 6 different images from each membrane were taken. The number of migratory cells were counted using Image J analysis.\nDifferent biological effects of miRNA-193a-3p have been tested in various cancer cell lines (see Table 13). For this, various cells were treated with miRNA-193a at different concentrations (1, 3, 10 nM). For all experiments controls (untreated, mock and scrambled) were measured. All assays were performed at 24h, 48h and 72h time points. […] All the results have been quantified and normalized to the mock control.\nmiRNA-193a treatment in various cancer cell lines decreased cell viability over time as measured by either an MTS assay or by cell count. It enhanced apoptosis induction over time as measured by a caspase 3/7 apoptosis assay. […]"}, "Huh7, H1299, and HCT116": {"system": "Huh7, H1299, and HCT116", "assay": "Cleaved-parp protein on western blot", "assay_type": "cell-based", "conditions": "data not shown", "source_text": "miRNA-193a treatment in various cancer cell lines decreased cell viability over time as measured by either an MTS assay or by cell count. It enhanced apoptosis induction over time as measured by a caspase 3/7 apoptosis assay. […] It is of note that due to intrinsic characteristics and gene mutation status of each cell line, performing one method to detect apoptosis is not always ideal for all cell lines."}, "[1]": {"system": "3′ untranslated regions (UTR) of NT5E (CD73)", "assay": "3′UTR luciferase assay in Hela cells", "assay_type": "cell-based", "conditions": "10 nM", "procedure": "Firefly luciferase reporter constructs containing the 3′ untranslated regions (UTR) of NT5E (CD73) were transfected in Hela cells along with 10 nM miRNA-193a-3p or a scrambled control. Cell extracts were prepared 24 hours after transfection, and luciferase activity was measured using the Dual Luciferase Reporter Assay System (Promega). If the 3′UTR is a target of the miRNA, miRNA will interact with 3′UTR and provides lower luciferase signal."}, "A2058 melanoma cells": {"system": "A2058 melanoma cells", "assay": "Adenosine assay", "assay_type": "cell-based, human", "conditions": "miRNA-193a-3p at 10 nM, vs untreated, mock, scrambled", "procedure": "4000 A2058 melanoma cells were seeded per well in a 96 well plate. 4h after seeding, cells were transfected with different concentrations of miRNA-193a-3p, scrambled control, siNT5E and siPool as control. 24h post transfection the cells were treated with 500 μM AMP and adenosine measurement was performed 24h post-treatment following steps from adenosine measurement kit (BioVision)."}, "A2058 cells": {"system": "A2058 cells", "assay": "In vitro transwell migration assay", "assay_type": "cell-based, human", "conditions": "miRNA-193a-3p at 10 nM; vs scrambled", "procedure": "as §1\nTo assess the impact of miRNA-193a-3p on adenosine generation, the release of free phosphate in A2058 melanoma cells was measured as a read out for ATP, ADP, and AMP dephosphorylation in supernatants. […] Similar results were found by measuring the direct amount of adenosine in cell culture supernatants (FIG. 16B). Further, the role of miRNA-193a in A2058 cancer cell migration was investigated."}, "[2]": {"system": "twelve syngeneic tumor models", "assay": "Primary tumor growth in a panel of twelve syngeneic tumor models (significance)", "assay_type": "in vivo, mice", "source_text": "In this study, the effect of miRNA-193a formulated in diamino lipid nanoparticles was investigated on the primary tumor growth in a panel of twelve syngeneic tumor models. Six to eight weeks mice (Shanghai Lingchang Bio-Technology Co. Ltd, Shanghai, China) were subcutaneously injected with an appropriate number of syngeneic cancer cells, depending on the cancer model (see Table 18). At the time of randomization, tumor volume (TV) was approximately 80-120 mm^3. Body weights and TVs (caliper measurements) were determined 2-3 times/week. After randomization (indicated as day 0) mice received PBS or miR-193a (formulated in diamino lipid nanoparticles) treatments as shown in Table 19. Each tumor model had two groups as depicted in Table 19. Mice were scheduled to be euthanized after two weeks of follow up after a maximum of four weeks of treatment."}, "[3]": {"system": "orthotopic human Hep3b hepatocellular carcinoma tumors", "assay": "Orthotopic Hep3b model, miRNAs in NOV340, AFP and tumor weight (Example 4.13)", "assay_type": "in vivo, mice", "conditions": "NOV340 nanoparticles, 6 mg/kg iv QODx9 for 3 weeks; day 39", "procedure": "Six to eight weeks old female SCID/Beige mice (Shanghai Lingchang Bio-Technology Co. Ltd, Shanghai, China) were orthotopically implanted with a single 2×2×2 mm piece of a subq grown Hep3b tumor into the left liver lobe. Mice were randomized based on day 21 AFP levels. At the time of randomization, the AFP levels (ng/ml plasma) ranged between 401 and 40628 ng/ml (median 2536, IQR=1037-5510). Treatments were with sorafenib, with vehicle control, or with various miRNAs (or scrambled miRNA control) encapsulated in NO340 lipid nanoparticles (Simonson and Das, Mini Rev Med Chem, 2015, 15(6): 467-474, PMID: 25807941). Treatments started on day 22 and continued for three weeks (dosing scheme in Table 21). AFP was measured once a week for 4 weeks, and BW was measured twice a week. At the end of the study tumor weights were also determined. QOD×9=one injection every other day for nine times; BID=twice daily; po=per oral.\nAfter terminal sacrifice on day 39, AFP levels and tumor weights were determined."}}}
{"substance": "miRNA-193a: duplex of the miRNA-193a-3p of SEQ ID NO: 218 (mimic, sense) with antisense strand SEQ ID NO: 219; naked in vitro, formulated in vivo (sense UGGGACUUUGUAGGCCAGUUTT; antisense AACUGGCCUACAAAGUCCCAGU; chemistry not given here; listed as Homo sapiens)", "values": [{"measurement": "Cell cycle arrest (72 h)", "setting": "A549, H460", "result": "SubG1"}, {"measurement": "Motility (18 to 24 h)", "setting": "4T1", "result": "↓"}, {"measurement": "Cleaved-parp protein on western blot", "setting": "Huh7, H1299, and HCT116", "result": "enhanced cleaved-parp protein"}, {"measurement": "Luciferase activity of reporter construct containing mutated form of the CD73 3′UTR", "setting": "[1]", "result": "did not affect the luciferase activity"}, {"measurement": "Luciferase activity of reporter construct containing NT5E 3′UTR region", "setting": "[1]; vs mock and scrambled controls", "result": "downregulation of the activity"}, {"measurement": "Adenosine generation", "setting": "A2058 melanoma cells", "result": "reduces"}, {"measurement": "Migration ability of A2058 cells", "setting": "A2058 cells", "result": "significantly suppressed migration ability"}, {"measurement": "Tumor growth inhibition (TGI), significance", "setting": "[2]; CT26, Renca, and Hepa1-6 models", "result": "did not induce significant TGI"}, {"measurement": "Tumor growth inhibition (TGI), significance", "setting": "[2]; H22, Pan02, B16-BL6, RM-1, B16F10, MC38, A20, and EMT-6 models", "result": "significantly induced tumor growth inhibition"}, {"measurement": "Growth of Hep3b HCC tumors measured by AFP and tumor weight", "setting": "[3]", "result": "did not inhibit growth"}]}
